Measurements: ChEMBL document CHEMBL4507257, “Data for DCP probe ABT-100” (2021)

Columns and labels:
[1] = biological target: Sigma non-opioid intracellular receptor 1 (Homo sapiens, UniProt Q99720); assay: GPCRScan assay: inhibition of Sigma 1; set-up: radioligand conc. used [nm] 4.0 – 5.0, parental cells HEKT
[2] = biological target: Alpha-1D adrenergic receptor (Homo sapiens) (UniProt P25100); conditions: Compound concentration 10.0 uM
[3] = biological target: L-type calcium channel (verapamil site) (Homo sapiens, UniProt O60840+Q01668+Q13698+Q13936); assay: Ca2+ channel (L verapamil site) Ligand binding assay; format: protein assay
[4] = biological target: Sodium-dependent noradrenaline transporter (Homo sapiens) (UniProt P23975); assay: NE uptake (h) Ligand binding assay
[5] = biological target: Adenosine receptor A3 (Homo sapiens) (UniProt P0DMS8); assay: A3 (h) Ligand binding assay; conditions: Compound concentration 10.0 uM
[6] = biological target: T1, Muscarinic acetylcholine receptor M5 (Homo sapiens) (UniProt P08912); assay: M5 (h) Ligand binding assay; conditions: Compound concentration 10.0 uM
T1 sequence (whole entry): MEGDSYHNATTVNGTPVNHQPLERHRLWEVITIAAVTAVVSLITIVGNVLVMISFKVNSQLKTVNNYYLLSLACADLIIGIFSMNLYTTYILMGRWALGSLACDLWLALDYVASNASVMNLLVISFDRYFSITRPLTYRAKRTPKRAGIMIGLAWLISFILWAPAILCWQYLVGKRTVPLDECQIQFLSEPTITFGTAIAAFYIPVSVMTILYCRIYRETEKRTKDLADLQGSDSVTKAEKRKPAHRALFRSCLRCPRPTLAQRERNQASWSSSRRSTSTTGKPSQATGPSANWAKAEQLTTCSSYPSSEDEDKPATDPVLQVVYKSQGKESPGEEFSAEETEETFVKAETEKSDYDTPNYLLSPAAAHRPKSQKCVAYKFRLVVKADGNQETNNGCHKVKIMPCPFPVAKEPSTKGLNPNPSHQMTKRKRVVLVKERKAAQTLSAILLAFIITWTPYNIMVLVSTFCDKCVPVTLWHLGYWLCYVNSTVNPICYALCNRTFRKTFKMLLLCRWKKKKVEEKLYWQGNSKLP

[7] = biological target: Bombesin receptor (Homo sapiens) (UniProt P28336+P32247+P30550); assay: Bombesin Ligand binding assay; format: protein assay; conditions: Compound concentration 10.0 uM
[8] = biological target: 5-hydroxytryptamine receptor 5A (Homo sapiens) (UniProt P47898); assay: 5-HT5A (h) Ligand binding assay; conditions: Compound concentration 10.0 uM
[9] = biological target: T2, Muscarinic acetylcholine receptor M1 (Homo sapiens) (UniProt P11229); assay: M1 (h) Ligand binding assay; conditions: Compound concentration 10.0 uM
T2 sequence (whole entry): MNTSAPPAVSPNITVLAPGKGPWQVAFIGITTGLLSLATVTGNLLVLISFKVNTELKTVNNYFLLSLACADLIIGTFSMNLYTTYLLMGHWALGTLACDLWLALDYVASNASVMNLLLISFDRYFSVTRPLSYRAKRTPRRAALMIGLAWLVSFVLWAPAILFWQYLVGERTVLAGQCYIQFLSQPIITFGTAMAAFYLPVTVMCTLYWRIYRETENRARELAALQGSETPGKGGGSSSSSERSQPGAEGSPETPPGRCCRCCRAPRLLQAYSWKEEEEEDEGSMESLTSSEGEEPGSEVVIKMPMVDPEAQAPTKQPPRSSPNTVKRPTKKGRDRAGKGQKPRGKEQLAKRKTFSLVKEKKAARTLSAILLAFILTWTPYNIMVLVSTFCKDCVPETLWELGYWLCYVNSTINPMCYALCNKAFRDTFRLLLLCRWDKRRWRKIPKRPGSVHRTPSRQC

[10] = biological target: Adrenergic receptor alpha-1 (Homo sapiens) (UniProt P35348+P25100+P35368); assay: alpha1 (non-selective) Ligand binding assay; format: protein assay; conditions: Compound concentration 10.0 uM
[11] = biological target: Adrenergic receptor alpha-2 (Homo sapiens) (UniProt P08913+P18825+P18089); assay: alpha2 (non-selective) Ligand binding assay; format: protein assay; conditions: Compound concentration 10.0 uM
[12] = biological target: Muscarinic acetylcholine receptor M2 (Homo sapiens) (UniProt P08172); assay: M2 (h) Ligand binding assay; conditions: Compound concentration 10.0 uM
[13] = biological target: Histamine H2 receptor (Homo sapiens) (UniProt P25021); assay: H2 Ligand binding assay; conditions: Compound concentration 10.0 uM
[14] = biological target: Calcitonin-gene-related peptide receptor, CALCRL/RAMP1 (Homo sapiens) (UniProt O60894+Q16602); assay: CGRP (h) Ligand binding assay; format: protein-complex assay; conditions: Compound concentration 10.0 uM
[15] = biological target: Kappa-type opioid receptor (Homo sapiens) (UniProt P41145); assay: Kappa (h) Ligand binding assay; conditions: Compound concentration 10.0 uM
[16] = biological target: Adenosine receptor A2a (Homo sapiens) (UniProt P29274); assay: A2a (h) Ligand binding assay; conditions: Compound concentration 10.0 uM
[17] = Cl- ionophore Ligand binding assay
[18] = biological target: 5-hydroxytryptamine receptor 6 (Homo sapiens) (UniProt P50406); assay: 5-HT6 (h) Ligand binding assay; conditions: Compound concentration 10.0 uM
[19] = biological target: 5-hydroxytryptamine receptor 1B (Homo sapiens) (UniProt P28222); assay: 5-HT1B Ligand binding assay; conditions: Compound concentration 10.0 uM
[20] = biological target: P2Y receptor (Homo sapiens) (UniProt Q9H244+P51582+P47900+P41231+Q15391+Q15077+Q96G91+Q9BPV8); assay: P2Y Ligand binding assay; format: protein assay; conditions: Compound concentration 10.0 uM
[21] = biological target: Mu-type opioid receptor (Homo sapiens) (UniProt P35372); assay: Mu (h) Ligand binding assay; conditions: Compound concentration 10.0 uM
[22] = biological target: Cannabinoid receptor 2 (Homo sapiens) (UniProt P34972); assay: CB2 (h) (peripheral) Ligand binding assay; conditions: Compound concentration 10.0 uM
[23] = biological target: D(1B) dopamine receptor (Homo sapiens) (UniProt P21918); conditions: Compound concentration 10.0 uM
[24] = biological target: Adenosine receptor A1 (Homo sapiens) (UniProt P30542); assay: A1 (h) Ligand binding assay; conditions: Compound concentration 10.0 uM
[25] = biological target: Pituitary adenylate cyclase-activating polypeptide type I receptor (Homo sapiens) (UniProt P41586); assay: PACAP[…] (h) Ligand binding assay; conditions: Compound concentration 10.0 uM
[26] = biological target: Sigma receptor (Homo sapiens) (UniProt Q99720+Q5BJF2); assay: Sigma (non selective) Ligand binding assay; format: protein assay
[27] = GABA (non selective) Ligand binding assay; conditions: Compound concentration 10.0 uM
[28] = biological target: Vasoactive intestinal polypeptide receptor 1 (Homo sapiens) (UniProt P32241); assay: VIP1 (h) Ligand binding assay
Ephrin type-A receptor 1 = Ephrin type-A receptor 1 (Homo sapiens, UniProt P21709); assay: Inhibition of EPHA1 at compound concentration of 10.0 uM using the ScanMax (DiscoverX)
[29] = biological target: Endothelin-1 receptor (Homo sapiens) (UniProt P25101); assay: ETA (h) Ligand binding assay; conditions: Compound concentration 10.0 uM
[30] = biological target: 5-hydroxytryptamine receptor 2A (Homo sapiens) (UniProt P28223); assay: 5-HT2A (h) Ligand binding assay; conditions: Compound concentration 10.0 uM
[31] = biological target: Cannabinoid receptor 1 (Homo sapiens) (UniProt P21554); assay: CB1 (h) (central) Ligand binding assay
[32] = biological target: Beta-1 adrenergic receptor (Homo sapiens) (UniProt P08588); conditions: Compound concentration 10.0 uM
Chain of Beta-1 adrenergic receptor (Homo sapiens) (P08588 whole entry, looked up): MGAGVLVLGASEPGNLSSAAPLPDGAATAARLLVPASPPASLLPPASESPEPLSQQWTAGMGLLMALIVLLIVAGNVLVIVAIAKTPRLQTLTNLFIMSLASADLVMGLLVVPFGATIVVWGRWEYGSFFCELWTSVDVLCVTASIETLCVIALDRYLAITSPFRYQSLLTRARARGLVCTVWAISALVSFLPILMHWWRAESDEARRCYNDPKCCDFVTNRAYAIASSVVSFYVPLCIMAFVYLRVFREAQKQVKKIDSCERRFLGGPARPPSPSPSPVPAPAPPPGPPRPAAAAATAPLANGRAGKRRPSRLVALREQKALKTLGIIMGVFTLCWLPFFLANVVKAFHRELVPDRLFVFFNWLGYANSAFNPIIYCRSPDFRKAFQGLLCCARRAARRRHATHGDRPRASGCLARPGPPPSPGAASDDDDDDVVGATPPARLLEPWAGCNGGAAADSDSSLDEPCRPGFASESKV

Chain of Cannabinoid receptor 1 (Homo sapiens) (P21554 whole entry): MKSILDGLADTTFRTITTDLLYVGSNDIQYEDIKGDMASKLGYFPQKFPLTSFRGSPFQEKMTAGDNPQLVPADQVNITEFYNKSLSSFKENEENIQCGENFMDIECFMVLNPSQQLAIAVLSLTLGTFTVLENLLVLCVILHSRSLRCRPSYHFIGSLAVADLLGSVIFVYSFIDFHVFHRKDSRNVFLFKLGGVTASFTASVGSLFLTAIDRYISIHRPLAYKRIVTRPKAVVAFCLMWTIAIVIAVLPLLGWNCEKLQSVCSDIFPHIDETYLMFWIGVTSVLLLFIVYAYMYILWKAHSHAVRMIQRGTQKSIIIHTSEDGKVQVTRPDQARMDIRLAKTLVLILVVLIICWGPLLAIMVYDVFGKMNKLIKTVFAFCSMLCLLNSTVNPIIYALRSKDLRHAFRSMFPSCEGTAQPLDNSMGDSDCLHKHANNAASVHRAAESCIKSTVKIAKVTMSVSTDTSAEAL
Chain of Vasoactive intestinal polypeptide receptor 1 (Homo sapiens) (P32241 whole entry): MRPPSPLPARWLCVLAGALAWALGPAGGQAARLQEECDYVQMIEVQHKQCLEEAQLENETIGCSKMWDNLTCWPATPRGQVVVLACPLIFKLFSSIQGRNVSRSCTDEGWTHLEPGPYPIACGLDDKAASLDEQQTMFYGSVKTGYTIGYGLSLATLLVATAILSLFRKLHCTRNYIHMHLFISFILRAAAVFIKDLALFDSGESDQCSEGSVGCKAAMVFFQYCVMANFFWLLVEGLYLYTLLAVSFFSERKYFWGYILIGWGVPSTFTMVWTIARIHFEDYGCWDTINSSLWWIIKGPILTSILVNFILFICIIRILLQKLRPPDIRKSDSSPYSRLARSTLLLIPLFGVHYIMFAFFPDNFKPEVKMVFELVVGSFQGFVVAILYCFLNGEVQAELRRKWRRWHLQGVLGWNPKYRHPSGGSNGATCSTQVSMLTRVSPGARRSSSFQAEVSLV
Chain of Sigma receptor (Homo sapiens) (Q5BJF2 whole entry, looked up): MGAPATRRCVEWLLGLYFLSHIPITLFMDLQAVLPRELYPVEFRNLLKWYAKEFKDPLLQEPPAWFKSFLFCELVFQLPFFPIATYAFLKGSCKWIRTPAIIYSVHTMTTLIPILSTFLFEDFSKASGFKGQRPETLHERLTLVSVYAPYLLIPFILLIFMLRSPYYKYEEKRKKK
Chain of Sigma receptor (Homo sapiens) (Q99720 whole entry, looked up): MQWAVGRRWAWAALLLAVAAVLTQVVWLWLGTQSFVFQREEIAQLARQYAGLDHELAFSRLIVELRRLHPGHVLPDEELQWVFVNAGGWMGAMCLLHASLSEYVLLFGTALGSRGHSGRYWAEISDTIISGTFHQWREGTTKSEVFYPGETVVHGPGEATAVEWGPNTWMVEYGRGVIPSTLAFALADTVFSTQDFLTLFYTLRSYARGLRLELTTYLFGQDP
Chain of Sodium-dependent noradrenaline transporter (Homo sapiens) (P23975 whole entry): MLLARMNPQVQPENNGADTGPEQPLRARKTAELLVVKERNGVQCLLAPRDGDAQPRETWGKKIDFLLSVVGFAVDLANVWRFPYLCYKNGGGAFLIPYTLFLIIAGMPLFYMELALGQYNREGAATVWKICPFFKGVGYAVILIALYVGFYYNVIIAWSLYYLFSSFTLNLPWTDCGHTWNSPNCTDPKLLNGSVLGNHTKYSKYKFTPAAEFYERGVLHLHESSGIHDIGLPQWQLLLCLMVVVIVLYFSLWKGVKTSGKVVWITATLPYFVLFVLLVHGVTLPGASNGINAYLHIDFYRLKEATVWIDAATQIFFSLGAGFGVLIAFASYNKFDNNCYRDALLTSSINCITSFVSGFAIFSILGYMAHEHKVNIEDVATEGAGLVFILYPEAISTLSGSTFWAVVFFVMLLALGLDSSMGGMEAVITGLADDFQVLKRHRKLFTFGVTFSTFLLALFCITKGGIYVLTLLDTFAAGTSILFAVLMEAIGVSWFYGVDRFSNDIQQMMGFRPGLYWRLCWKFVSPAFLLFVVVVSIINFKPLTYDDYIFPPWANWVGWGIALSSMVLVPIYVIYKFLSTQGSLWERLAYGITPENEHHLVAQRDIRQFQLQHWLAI
Chain of 5-hydroxytryptamine receptor 6 (Homo sapiens) (P50406 whole entry): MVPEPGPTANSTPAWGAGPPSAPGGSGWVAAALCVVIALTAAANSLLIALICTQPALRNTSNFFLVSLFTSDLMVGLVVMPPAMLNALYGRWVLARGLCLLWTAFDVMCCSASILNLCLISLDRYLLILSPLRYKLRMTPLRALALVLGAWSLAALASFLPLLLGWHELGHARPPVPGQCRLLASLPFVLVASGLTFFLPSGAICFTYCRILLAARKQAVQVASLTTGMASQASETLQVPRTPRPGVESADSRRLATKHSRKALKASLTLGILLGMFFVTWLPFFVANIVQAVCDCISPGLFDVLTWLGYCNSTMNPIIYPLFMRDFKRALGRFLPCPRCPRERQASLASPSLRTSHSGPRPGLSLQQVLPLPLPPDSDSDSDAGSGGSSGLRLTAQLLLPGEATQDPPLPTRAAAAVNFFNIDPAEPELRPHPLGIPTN
Chain of Histamine H2 receptor (Homo sapiens) (P25021 whole entry): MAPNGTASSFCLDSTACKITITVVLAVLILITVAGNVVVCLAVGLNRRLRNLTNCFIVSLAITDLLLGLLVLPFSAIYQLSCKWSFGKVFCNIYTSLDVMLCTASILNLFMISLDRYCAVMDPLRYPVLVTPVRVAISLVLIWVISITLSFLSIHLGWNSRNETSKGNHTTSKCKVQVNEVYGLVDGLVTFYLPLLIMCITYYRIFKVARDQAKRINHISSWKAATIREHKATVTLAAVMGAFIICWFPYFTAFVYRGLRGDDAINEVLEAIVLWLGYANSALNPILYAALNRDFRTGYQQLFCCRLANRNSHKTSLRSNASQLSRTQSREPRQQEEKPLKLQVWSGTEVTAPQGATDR
Chain of Sigma non-opioid intracellular receptor 1 (Q99720 whole entry): as the sequence (Q99720 whole entry, looked up) above
Chain of Adenosine receptor A1 (Homo sapiens) (P30542 whole entry): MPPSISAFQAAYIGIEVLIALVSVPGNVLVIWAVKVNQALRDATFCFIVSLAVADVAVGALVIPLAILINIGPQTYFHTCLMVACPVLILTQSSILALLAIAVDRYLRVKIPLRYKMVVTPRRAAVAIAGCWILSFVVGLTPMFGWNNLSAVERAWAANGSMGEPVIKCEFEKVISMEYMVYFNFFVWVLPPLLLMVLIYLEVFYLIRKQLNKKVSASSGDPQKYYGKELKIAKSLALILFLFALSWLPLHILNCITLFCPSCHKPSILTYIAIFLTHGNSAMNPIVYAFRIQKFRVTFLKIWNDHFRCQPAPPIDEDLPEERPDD
Chain of Alpha-1D adrenergic receptor (Homo sapiens) (P25100 whole entry): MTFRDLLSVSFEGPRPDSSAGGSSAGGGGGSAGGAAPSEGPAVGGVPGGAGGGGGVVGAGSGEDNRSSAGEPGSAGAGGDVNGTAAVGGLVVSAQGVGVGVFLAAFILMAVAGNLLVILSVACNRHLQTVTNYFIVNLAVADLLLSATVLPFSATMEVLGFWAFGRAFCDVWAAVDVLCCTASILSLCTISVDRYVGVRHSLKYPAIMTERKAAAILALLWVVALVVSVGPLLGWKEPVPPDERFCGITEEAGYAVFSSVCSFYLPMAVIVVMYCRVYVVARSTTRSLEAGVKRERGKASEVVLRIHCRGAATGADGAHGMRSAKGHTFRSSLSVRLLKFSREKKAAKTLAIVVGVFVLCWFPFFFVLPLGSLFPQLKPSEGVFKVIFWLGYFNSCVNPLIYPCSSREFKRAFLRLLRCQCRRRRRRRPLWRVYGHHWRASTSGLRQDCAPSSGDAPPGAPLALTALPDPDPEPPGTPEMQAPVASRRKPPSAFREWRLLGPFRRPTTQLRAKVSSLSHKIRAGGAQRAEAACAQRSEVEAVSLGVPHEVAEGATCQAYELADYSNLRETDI
Chain of Cannabinoid receptor 2 (Homo sapiens) (P34972 whole entry): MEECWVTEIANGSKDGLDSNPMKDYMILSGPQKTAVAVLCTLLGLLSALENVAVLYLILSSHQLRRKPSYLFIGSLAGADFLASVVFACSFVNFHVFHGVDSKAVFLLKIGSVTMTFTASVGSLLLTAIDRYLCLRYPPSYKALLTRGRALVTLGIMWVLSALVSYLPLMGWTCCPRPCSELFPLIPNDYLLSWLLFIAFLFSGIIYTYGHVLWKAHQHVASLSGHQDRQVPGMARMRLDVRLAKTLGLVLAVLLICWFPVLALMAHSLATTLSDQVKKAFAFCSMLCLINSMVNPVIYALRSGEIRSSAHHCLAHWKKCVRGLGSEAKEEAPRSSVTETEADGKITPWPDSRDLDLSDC

Cn1cncc1[C@@](O)(COc1ccc(C#N)cc1-c1ccc(OC(F)(F)F)cc1)c1ccc(C#N)cc1 [A-108]
Ki [1]: 91.6 nM

Cn1cncc1[C@](O)(COc1ccc(C#N)cc1-c1ccc(OC(F)(F)F)cc1)c1ccc(C#N)cc1 [ABT-100]
inhibition [2]: -8.65%
inhibition at 1 µM ([3]; compound concentration 1 uM): 10% (not active)
inhibition at 3 µM ([3]; compound concentration 3 uM): 37% (not active)
inhibition at 10 µM ([3]; compound concentration 10 uM): 60%
inhibition ([4]; Compound concentration 3.0 uM): 45%
inhibition ([4]; Compound concentration 10.0 uM): 74%
inhibition [5]: < 10%
inhibition [6]: 18%
inhibition [7]: < 10%
inhibition [8]: 30%
inhibition [9]: < 10%
inhibition [10]: < 10%
inhibition [11]: < 10%
inhibition [12]: < 10%
inhibition [13]: 53%
inhibition [14]: < 10%
inhibition [15]: 36%
inhibition [16]: < 10%
inhibition ([17]; Compound concentration 3.0 uM): 30%
inhibition ([17]; Compound concentration 10.0 uM): 67%
inhibition [18]: < 10%
inhibition [19]: < 10%
inhibition [20]: < 10%
inhibition [21]: 18%
inhibition [22]: < 10%
inhibition [23]: 4.79%
inhibition [24]: < 10%
inhibition [25]: < 10%
inhibition ([26]; Compound concentration 3.0 uM): 28%
inhibition ([26]; Compound concentration 10.0 uM): 67%
inhibition [27]: < 10%
inhibition ([28]; Compound concentration 0.3 uM): 23%
inhibition ([28]; Compound concentration 10.0 uM): 60%
Kd (Ephrin type-A receptor 1): > 10 µM (not active)
inhibition [29]: < 10%
inhibition [30]: 15%
inhibition ([31]; Compound concentration 1.0 uM): 23%
inhibition ([31]; Compound concentration 3.0 uM): 45%
inhibition ([31]; Compound concentration 10.0 uM): 68%
inhibition [32]: 4.25%
